Molecular target: NLRP3 (Homo sapiens, UniProt Q96P20)
Assay: THP-1 cell-based NLRP3 activation assay
Parameters: endogenous in cells; host or cells: THP-1 cells (PMA-differentiated, LPS-primed, nigericin-stimulated)
Conditions: PMA-differentiated THP-1 cells, LPS 100 ng/mL then 10 μM nigericin
Description: THP-1 cells are cultured in complete media (CM) until they reach logarithmic growth and achieve a viability >90%. CM is composed of RPMI-1640 (+Glutamax)/10% fetal bovine serum/55 μM β-mercaptoethanol/pen/strep. Cells are spun down and resuspended to 1,000,000 cells/mL in CM containing either 20 nM or 500 nM PMA. 150,000 cells (150 μL) are then added to each well of a 96-well TC plate and incubated for either 24 hr or 3 hr, respectively, in a standard cell culture incubator (37° C.; 5% CO2). After this incubation, the plate is tilted and media carefully removed. 200 μL of CM containing 100 ng/mL LPS is then added to the wells and the cells incubated an additional 3 hrs. The media is again removed and replaced with Opti-Mem medium containing pre-determined dilutions of test compounds in replicate wells. After a 30 min incubation, 10 μM nigericin (final concentration) in Opti-Mem medium with the corresponding concentration of compound is added to the wells for an additional 1 hr. Positive control wells contain 10 μM nigericin in Opti-Mem in the absence of test compound, while negative control wells contain Opti-Mem only. […] Once supernatants are removed, the relative viability of adherent cells in the 96-well TC plate are determined using a CellTiter-Glo® luminescent cell viability assay (Promega).

NLRP3, sequence (Q96P20 whole entry): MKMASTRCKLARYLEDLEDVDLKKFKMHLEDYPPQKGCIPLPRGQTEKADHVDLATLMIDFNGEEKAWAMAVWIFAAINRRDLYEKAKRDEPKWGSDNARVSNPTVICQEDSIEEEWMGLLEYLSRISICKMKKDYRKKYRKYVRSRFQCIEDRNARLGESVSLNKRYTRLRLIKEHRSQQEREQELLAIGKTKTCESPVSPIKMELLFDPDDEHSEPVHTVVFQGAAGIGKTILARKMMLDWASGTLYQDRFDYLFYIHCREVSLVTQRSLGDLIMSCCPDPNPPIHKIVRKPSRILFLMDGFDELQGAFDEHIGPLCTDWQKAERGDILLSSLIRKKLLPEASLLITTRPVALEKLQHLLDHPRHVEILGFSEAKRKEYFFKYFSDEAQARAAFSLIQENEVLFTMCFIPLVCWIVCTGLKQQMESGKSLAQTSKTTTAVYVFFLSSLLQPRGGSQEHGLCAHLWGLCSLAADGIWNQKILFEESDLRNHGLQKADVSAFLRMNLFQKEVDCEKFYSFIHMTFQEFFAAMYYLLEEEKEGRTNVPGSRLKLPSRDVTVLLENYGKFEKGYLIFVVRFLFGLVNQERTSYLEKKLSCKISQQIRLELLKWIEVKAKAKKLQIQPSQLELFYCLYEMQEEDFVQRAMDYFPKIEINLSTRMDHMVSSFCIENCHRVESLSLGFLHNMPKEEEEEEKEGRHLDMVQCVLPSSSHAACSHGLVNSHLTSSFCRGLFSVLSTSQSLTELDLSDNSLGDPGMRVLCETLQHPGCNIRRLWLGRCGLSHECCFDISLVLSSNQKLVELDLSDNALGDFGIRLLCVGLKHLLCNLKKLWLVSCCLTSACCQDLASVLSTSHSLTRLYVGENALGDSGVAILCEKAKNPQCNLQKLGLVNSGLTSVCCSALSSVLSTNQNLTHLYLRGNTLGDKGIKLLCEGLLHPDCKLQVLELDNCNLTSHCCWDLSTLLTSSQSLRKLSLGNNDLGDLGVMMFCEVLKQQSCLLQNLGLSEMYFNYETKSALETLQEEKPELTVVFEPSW

SMILES	IC50 [nM]
CCOc1cc(C(=O)N(C)C(CN2CCC(O)C2)c2cncc3cn[nH]c23)ccc1-c1cccc(F)c1 (stereo not drawn) [Compound 247]	< 100
CCOc1cc(C(=O)N(C)[C@H](CCN(C)CCCF)c2cncc3cn[nH]c23)ccc1-c1ccccc1 [Compound 138]	< 100
CCOc1cc(C(=O)N(C)[C@H](CCN(C)C)c2cccc3cn[nH]c23)ccc1-c1ccccc1 [Compound 194]	< 100
CCOc1cc(C(=O)N(C)[C@H](CC[N+](C)(C)[O-])c2cccc3cn[nH]c23)ccc1-c1cccc(F)c1 [Compound 227]	< 100
CCOc1cc(C(=O)N(C)[C@@H](c2cncc3cn[nH]c23)C2CN(C)C2)ccc1-c1cccc(C#N)c1 [Compound 143]	< 100
CCc1ncc([C@@H](CO)N(C)C(=O)c2ccc(-c3cc(F)cc(F)c3)c(OC3CC3)c2)c2[nH]ncc12 [Compound 035]	< 100
CCOc1cc(C(=O)N(C)[C@H](CCN(C)C)c2cncc3cn[nH]c23)ccc1C1CCCC1 [Compound 157]	< 100
CCOc1cc(C(=O)N(C)[C@H](CCN2CC(F)(F)C2)c2cncc3cn[nH]c23)ccc1-c1cccc(F)c1 [Compound 101]	< 100
CCOc1cc(C(=O)N(C)[C@H](CCN(C)CC(F)F)c2cncc3cn[nH]c23)ccc1-c1cccc(F)c1 [Compound 094]	< 100
CCOc1cc(C(=O)N(C)[C@@H](CN2CC(N(C)C)C2)c2cncc3cn[nH]c23)ccc1-c1cccc(F)c1 [Compound 187]	< 100
CCOc1cc(C(=O)N(CCN2C[C@@H](F)[C@@H](F)C2)Cc2cncc3cn[nH]c23)ccc1-c1cccc(F)c1 [Compound 108]	< 100
CCOc1cc(C(=O)N(C)[C@H](CN2CCCC2)c2cncc3cn[nH]c23)ccc1-c1cccc(F)c1 [Compound 129]	500 to 1000
CCOc1cc(C(=O)N(C)[C@H](CCN(C)C)c2cccc3cn[nH]c23)ccc1-c1cccc(C)c1 [Compound 195]	< 100
CCOc1cc(C(=O)N(C)[C@H](CO)c2cnc(C)c3cn[nH]c23)ccc1-c1cc(C)cc(F)c1 [Compound 021]	100 to 500
CCOc1cc(C(=O)N(C)[C@@H](c2cncc3cn[nH]c23)[C@@H]2CCN(C)C2)ccc1-c1ccccc1 [Compound 160]	< 100
CCOc1cc(C(=O)N(C)[C@@H](c2cncc3cn[nH]c23)C2CNC2)ccc1-c1cccc(C)c1 [Compound 168]	< 100
CCOc1cc(C(=O)N(C)[C@H](CCNCCF)c2cncc3cn[nH]c23)ccc1-c1ccccc1 [Compound 136]	< 100
CCOc1cc(C(=O)N(C)[C@@H](CCN(C)C)c2ccc(C)c3cn[nH]c23)ccc1-c1ccccc1 [Compound 205]	< 100
CCOc1cc(C(=O)N(Cc2cncc3cn[nH]c23)[C@H]2CC[C@@H]2N)ccc1-c1cccc(F)c1 [Compound 294]	500 to 1000
CCOc1cc(C(=O)N(CCO)Cc2cnc(C)c3cn[nH]c23)ccc1-c1cccc(F)c1 [Compound 051]	< 100

SMILES	IC50 [nM]
CCOc1cc(C(=O)N(C)[C@H](CCN(C)CCCF)c2cncc3cn[nH]c23)ccc1-c1cccc(F)c1 [Compound 137]	< 100
CCOc1cc(C(=O)N(C)[C@H](CCN)c2cncc3cn[nH]c23)ccc1-c1cccc(F)c1 [Compound 038]	< 100
CCOc1cc(C(=O)N(CCN2CCCCC2)Cc2cncc3cn[nH]c23)ccc1-c1ccccc1 [Compound 112]	< 100
CCOc1cc(C(=O)N(C)[C@H](CCN2CCC2)c2cccc3cn[nH]c23)ccc1-c1cccc(Cl)c1 [Compound 218]	< 100
CCOc1cc(C(=O)N(C)[C@H](CCN(C)CCO)c2cncc3cn[nH]c23)ccc1-c1cccc(F)c1 [Compound 262]	< 100
CCOc1cc(C(=O)N(C)[C@H](c2cccc3cn[nH]c23)C2CN(C)C2)ccc1-c1cccc(Cl)c1 [Compound 283]	< 100
CCOc1cc(C(=O)N(C)[C@@H](c2cncc3cn[nH]c23)[C@H]2CCNC2)ccc1-c1cccc(F)c1 (single isomer, unassigned) [Compound 089]	< 100
CCc1ncc([C@@H](CO)N(C)C(=O)c2ccc(-c3cccc(F)c3)c(OC3CC3)c2)c2[nH]ncc12 [Compound 034]	> 15000
CCOc1cc(C(=O)N(C)[C@H](CO)c2cncc3cn[nH]c23)ccc1-c1ccccc1 [Compound 005]	< 100
CCOc1cc(C(=O)N(C)[C@H](CO)c2cncc3cn[nH]c23)ccc1-c1cccc(Cl)c1 [Compound 004]	< 100
CCOc1cc(C(=O)N(C)[C@H](CCN(C)C)c2cnc(C)c3cn[nH]c23)ccc1-c1cc(Cl)cc(Cl)c1 [Compound 083]	< 100
CCOc1cc(C(=O)N(CCO)Cc2cnc(N)c3cn[nH]c23)ccc1-c1cccc(C#N)c1 [Compound 043]	100 to 500
CCOc1cc(C(=O)N(Cc2cccc3cn[nH]c23)[C@H]2C[C@@H](NC)C2)ccc1-c1cccc(F)c1 [Compound 252]	< 100
CCOc1cc(C(=O)N(Cc2cnc(C)c3cn[nH]c23)CC(C)(C)O)ccc1-c1cccc(F)c1 [Compound 053]	< 100
CCOc1cc(C(=O)N(Cc2cncc3cn[nH]c23)[C@H]2CC[C@@H]2N)ccc1-c1cccc(Cl)c1 [Compound 287]	500 to 1000
CCOc1cc(C(=O)N(C)[C@H](CCNC)c2cncc3cn[nH]c23)ccc1-c1cccc(Cl)c1 [Compound 228]	< 100
CCOc1cc(C(=O)N(C)C(CN2CCC2)c2cccc3cn[nH]c23)ccc1-c1cccc(F)c1 (stereo not drawn) [Compound 264]	< 100
CCOc1cc(C(=O)N(Cc2cnc(C)c3cn[nH]c23)[C@@H]2CC[C@H]2O)ccc1-c1cccc(F)c1 [Compound 057]	100 to 500
CN(C(=O)c1ccc(-c2cccc(F)c2)c(OC2CC2)c1)[C@@H](CCO)c1cncc2cn[nH]c12 [Compound 011]	1000 to 15000

Next, values leading:

IC50 [nM]	SMILES
< 100	CCOc1cc(C(=O)N(Cc2cccc3cn[nH]c23)[C@H]2C[C@@H](N)C2)ccc1-c1cccc(C#N)c1 [Compound 292]
< 100	CCOc1cc(C(=O)N(C)[C@H](CC[N+](C)([O-])CC)c2cncc3cn[nH]c23)ccc1-c1cccc(Cl)c1 (stereo partly drawn) [Compound 254]
1000 to 15000	CCOc1cc(C(=O)N(C)[C@H](c2cncc3cn[nH]c23)C2CNC2)ccc1-c1cccc(C#N)c1 [Compound 142]
< 100	CCOc1cc(C(=O)N(C)[C@H](CCN(C)C)c2cncc3cn[nH]c23)ccc1C(C)CC (stereo partly drawn) [Compound 161]
< 100	CCOc1cc(C(=O)N(C)[C@H](c2cncc3cn[nH]c23)C2CN(CC)C2)ccc1-c1cccc(C)c1 [Compound 171]
< 100	CCOc1cc(C(=O)N(CCN2C[C@@H](F)[C@H](F)C2)Cc2cncc3cn[nH]c23)ccc1-c1cccc(F)c1 [Compound 107]
1000 to 15000	CCOc1cc(C(=O)N(C)[C@H](CCN(C)C)c2cncc3cn[nH]c23)ccc1C(C)C [Compound 158]
1000 to 15000	CN(C(=O)c1ccc(-c2cccc(Cl)c2)c(OC2CC2)c1)[C@H](CCN1CCC1)c1cncc2cn[nH]c12 [Compound 281]
< 100	CCOc1cc(C(=O)N(C)[C@H](CCN(C)C)c2cccc3cn[nH]c23)ccc1-c1cccc(F)c1 [Compound 186]
< 100	CCOc1cc(C(=O)N(C)[C@@H](c2cncc3cn[nH]c23)C2CN(CC)C2)ccc1-c1cccc(F)c1 [Compound 173]
< 100	CCOc1cc(C(=O)N(C)[C@H](CO)c2cnc(C)c3cn[nH]c23)ccc1-c1cccc(Cl)c1 [Compound 019]
< 100	CCOc1cc(C(=O)N(C)[C@H](COC)c2cncc3cn[nH]c23)ccc1-c1cccc(Cl)c1 [Compound 014]
1000 to 15000	CCOc1cc(C(=O)N(C)[C@H](CC[N+](C)(C)[O-])c2cncc3cn[nH]c23)ccc1-c1cccc(F)c1 [Compound 145]
< 100	CCOc1cc(C(=O)N(C)[C@@H](CCO)c2cncc3cn[nH]c23)ccc1-c1cccc(F)c1 [Compound 009]
< 100	CCOc1cc(C(=O)N(C)[C@H](COC)c2cncc3cn[nH]c23)ccc1-c1cccc(F)c1 [Compound 013]
> 15000	CCOc1cc(C(=O)N(C)[C@@H](CCO)c2cnc(C)c3cn[nH]c23)ccc1-c1cccc(C#N)c1 [Compound 030]
< 100	CCOc1cc(C(=O)N(C)[C@@H](CN(C)C)c2cccc3cn[nH]c23)ccc1-c1cccc(Cl)c1 [Compound 221]
1000 to 15000	CCOc1cc(C(=O)N(C)[C@H](c2cncc3cn[nH]c23)C2CN(CC)C2)ccc1-c1ccccc1 [Compound 134]
< 100	CCOc1cc(C(=O)N(C)[C@@H](c2cccc3cn[nH]c23)C2CN(C)C2)ccc1-c1cccc(Cl)c1 [Compound 282]
1000 to 15000	CCOc1cc(C(=O)N(C)[C@@H](c2cncc3cn[nH]c23)C2CNC2)ccc1-c1ccccc1 [Compound 150]
1000 to 15000	CCOc1cc(C(=O)N(C)[C@H](c2cncc3cn[nH]c23)C2CN(C(C)C)C2)ccc1-c1ccccc1 [Compound 132]
< 100	CCOc1cc(C(=O)N(CC(C)(C)O)C(C)c2cnc(C)c3cn[nH]c23)ccc1-c1cccc(F)c1 (stereo not drawn) [Compound 062]
< 100	CCOc1cc(C(=O)N(C)[C@H](c2cnc(C)c3cn[nH]c23)C2CNC2)ccc1-c1cccc(F)c1 [Compound 072]
< 100	CCOc1cc(C(=O)N(CCO)Cc2cnc(NC)c3cn[nH]c23)ccc1-c1cccc(Cl)c1 [Compound 049]

Source: patent US12509459B2, “Inhibitors of NLRP3 inflammasome” (BioAge Labs, Inc., priority 2024, dated 2025)
